Data reported in article PMC4434089 (Biotechnology, Biotechnological Equipment, 2014).
Several values for one entry are separate records, joined by “and”; a condition that tells them apart may be missing. Equal values may be shown once. Marks after values point to notes of the source that are not given here.

Tests used:
amylin [1] = test system: amylin; parameters: method as in 2 sources, ref 23 = [23]; PMID 9878384; doi:10.1006/jmbi.1998.2299; Goldsbury C Kistler J Aebi U Arvinte T Cooper GJS J Mol Biol. 1999 285 33 39 9878384 10.1006/jmbi.1998.2299 ||| ref 26 = [26]; PMID 9216085; doi:10.1006/jsbi.1997.3858; Goldsbury CS Cooper GJS Goldie KN Muller SA Saafi EL Gruijters WTM Misur MP J Struct Biol. 1997 119 17 27 http://dx.doi.org/10.1006/jsbi.1997.3858 9216085 10.1006/jsbi.1997.3858; settings: cited from earlier work
amylin [2] = assay: NTA of amylin aggregation, alone or with amylin derivatives; format: biochemical, human; settings: for Concentration of aggregates 100–150 nm, 10 min / Concentration of aggregates 200–300 nm, 10 min / Concentration of aggregates 150–200 nm, 10 min / Concentration of aggregates 100–150 nm, 24 h / Concentration of aggregates 200–300 nm, 24 h / Concentration of aggregates 150–200 nm, 24 h: amylin 50 μmol L^−1 alone (A) or with 250 μmol L^−1 derivative, pH 7.4, duplicate; for Concentration of aggregates 100–150 nm, 10 min: 10 mmol L^−1 sodium phosphate, 50 mmol L^−1 NaCl; for Concentration of aggregates 100–150 nm, 10 min / Concentration of aggregates 150–200 nm, 10 min: p < 0.05 less than A: n1, n5, m5; for Concentration of aggregates 200–300 nm, 10 min: p < 0.05 less than A: n1, n3, n5, m1, m2, m3, m4, m5; for Concentration of aggregates 100–150 nm, 24 h: p < 0.05 less than A: n1, n2, m5, significantly more: m2; for Concentration of aggregates 200–300 nm, 24 h: p < 0.05 less than A: n1, n2, n3, n4, n5, m5; for Concentration of aggregates 150–200 nm, 24 h: p < 0.05 less than A: n1, n2, n5, m5; for concentration of 200–300 nm aggregates, with derivative: similar to or more than amylin only; for implied effect on fibrillogenesis of amylin: NTA compared with previously published reports; for number of 200–300 nm aggregates at 24 h vs amylin only: amylin:derivative 50:250 μmol L^−1, p < 0.05; for effect on amylin aggregation over 24 h: all size ranges, amylin:derivative 50:250 μmol L^−1, vs amylin only
Method: NTA measurements were performed with a NanoSight LM20 instrument (NanoSight, United Kingdom) equipped with a 640 nm laser and a temperature controlled sample chamber. […] The sample temperature was maintained at 37 °C for the entire duration of the experiment. These experimental conditions were similar to that used for a previously reported cytotoxicity experiment,[73] thus allowing correlation of results obtained from the two techniques. […] Once again, samples were maintained at 37 °C and 60 s video footage were recorded every 10 min for the first hour and then at 24 h. All videos were captured with the single shutter and gain modes. Analysis was performed using NanoSight NTA version 2.2 software with a viscosity setting of 0.70.

[3] = test system: amylin-mediated cytotoxicity; parameters: method as in PMID 20093026; settings: cited from earlier work

Row | Substance | Concentration of aggregates 100–150 nm, 10 min (amylin [2]; NTA, 10 min, 37 °C) | Concentration of aggregates 200–300 nm, 10 min (amylin [2]; NTA, 10 min, 37 °C) | Concentration of aggregates 150–200 nm, 10 min (amylin [2]; NTA, 10 min, 37 °C) | Concentration of aggregates 100–150 nm, 24 h (amylin [2]; NTA, 37 °C) | Concentration of aggregates 200–300 nm, 24 h (amylin [2]; NTA, 37 °C) | Concentration of aggregates 150–200 nm, 24 h (amylin [2]; NTA, 37 °C) | inhibitory effect on amylin-mediated cytotoxicity [3] | concentration of 200–300 nm aggregates, with derivative (amylin [2]; NTA) | reduction of amylin-mediated cytotoxicity [3] | implied effect on fibrillogenesis of amylin (amylin [2]) | number of 200–300 nm aggregates at 24 h vs amylin only (amylin [2]; NTA) | effect on amylin aggregation over 24 h (amylin [2]; NTA) | other results
1 | Amylin: chemically synthesized full-length human amylin, 37 amino acid long peptide (KCNTATCATQRLANFLVHSSNNFGAILSSTNVGSNTY; Islet amyloid polypeptide; UniProt P10997 34-70, looked up) [reference compound] | 5.7 ×10^7 aggregates/mL | 7.0 ×10^7 aggregates/mL | 5.4 ×10^7 aggregates/mL | 2.9 ×10^7 aggregates/mL | 2.7 ×10^7 aggregates/mL | 2.5 ×10^7 aggregates/mL |  |  |  |  |  |  | amylin growth rate (AFM) (amylin [1]; AFM): 1.1 nm/min; mass-per-length (MPL) of amylin protofibril (amylin [1]; STEM): 10 kDa nm^−1; approximate rate of amylin aggregation (amylin [1]; estimated from literature AFM and STEM values): ~11 kDa min^−1; critical concentration of 200–300 nm aggregates for amylin-mediated cytotoxicity (amylin [2]; NTA correlated to cytotoxicity data, suggested): more than 2.1 × 10^7 aggregates per millilitre; size of toxic species of amylin (amylin [2]; NTA correlated to previously published cytotoxicity (ref 73), tentatively suggested): 200–300 nm; predominant aggregate size (amylin [2]; NTA, amylin 50 μmol L^−1 alone, 37 °C, pH 7.4, over 24 h): 150–200 nm and 200–300 nm; completion of aggregation (amylin [2]; NTA, amylin alone): complete aggregation of amylin occurs within the first hour; concentration of 100–150, […]–200 and 200–300 nm aggregates after the first hour (amylin [2]; NTA, amylin alone, stable up until 24 h): 2.5 × 10^7 – 3.0 × 10^7 aggregates per millilitre; total concentration of aggregates (amylin [2]; initial NTA, 50 μmol L^−1 amylin): 3.12 × 10^8 aggregates per millilitre
2 | FLVHSS* [m3] | 2.1 ×10^7 aggregates/mL | 2.1* ×10^7 aggregates/mL | 1.6 ×10^7 aggregates/mL | 5.9 ×10^7 aggregates/mL | 4.7 ×10^7 aggregates/mL | 3.9 ×10^7 aggregates/mL | not to have an inhibitory effect on amylin-mediated cytotoxicity | ≥ 2.7 × 10^7 aggregates per millilitre |  |  |  |  | 
3 | NFGAIL* [m4] | 2.7 ×10^7 aggregates/mL | 1.6* ×10^7 aggregates/mL | 1.5 ×10^7 aggregates/mL | 4.1 ×10^7 aggregates/mL | 3.3 ×10^7 aggregates/mL | 2.8 ×10^7 aggregates/mL | not to have an inhibitory effect on amylin-mediated cytotoxicity | ≥ 2.7 × 10^7 aggregates per millilitre |  |  |  |  | 
4 | NTAT [n1] | 0.5* ×10^7 aggregates/mL | 0.4* ×10^7 aggregates/mL | 0.5* ×10^7 aggregates/mL | 0.9* ×10^7 aggregates/mL | 0.8* ×10^7 aggregates/mL | 1.1* ×10^7 aggregates/mL |  |  | more than 40% | inhibit fibrillogenesis | significantly lower than in samples containing amylin only | significantly less than that observed in samples containing disaggregated amylin only | 
5 | STNVGS [n5] | 0.1* ×10^7 aggregates/mL | 0.5* ×10^7 aggregates/mL | 0.1* ×10^7 aggregates/mL | 2.4 ×10^7 aggregates/mL | 2.0* ×10^7 aggregates/mL | 1.4* ×10^7 aggregates/mL |  |  | more than 40% | increase fibrillogenesis of amylin to an aggregate that is larger than 1000 nm | significantly lower than in samples containing amylin only | small amount of aggregates of all size ranges which increases only marginally over 24 h | 
6 | STNVGS* [m5] | 0.9* ×10^7 aggregates/mL | 0.8* ×10^7 aggregates/mL | 0.8* ×10^7 aggregates/mL | 1.6* ×10^7 aggregates/mL | 1.4* ×10^7 aggregates/mL | 1.3* ×10^7 aggregates/mL |  |  | more than 40% | inhibit fibrillogenesis | significantly lower than in samples containing amylin only | significantly fewer amylin aggregates of all size ranges | 
7 | TQRLA [n2] | 4.3 ×10^7 aggregates/mL | 3.4 ×10^7 aggregates/mL | 2.5 ×10^7 aggregates/mL | 1.5* ×10^7 aggregates/mL | 2.1* ×10^7 aggregates/mL | 1.5* ×10^7 aggregates/mL |  |  | more than 40% | increase fibrillogenesis of amylin to an aggregate that is larger than 1000 nm | significantly lower than in samples containing amylin only |  | concentrations of 100–150, […]–200 and 200–300 nm aggregates at 10 min vs amylin only (amylin [2]; NTA, 10 min, amylin:derivative 50:250 μmol L^−1, unpaired t-test): not significantly different
8 | TQRLA* [m2] | 3.9 ×10^7 aggregates/mL | 2.6* ×10^7 aggregates/mL | 2.4 ×10^7 aggregates/mL | 3.6** ×10^7 aggregates/mL | 4.6 ×10^7 aggregates/mL | 7.9 ×10^7 aggregates/mL | not to have an inhibitory effect on amylin-mediated cytotoxicity | ≥ 2.7 × 10^7 aggregates per millilitre |  |  |  |  | 
